Experimental findings from patent publication EP1891948A1, “Treatment of neurological and neuropsychological disorders” (Probiodrug AG, priority 2000, dated 2002) are described below.

This assay deals with WistarF/Han (WF) rats. Kind of assay: Social interaction (SI) test with Y1R antagonist pre-treatment (Example 4). The assay is classed as in vivo. The settings on record: i.c.v., isoleucyl thiazolidine 50nmol and/or NPY 0.8nmol, without antagonist; Fig. 10. Here is the method: Animals. Male WistarF/Han (WF) rats (Central Animal Laboratory, Hannover Medical School, Hannover, Germany, see http://www.mh-hannover.de/institut/tierlabor/wf.htm for details), weighing 330±31 g±SD, were housed in a sound-proof, temperature controlled (24.0±0.5°C) room under specific pathogen free conditions with a 12/12h dark/light cycle (lights on at 07.00 with illumination level of 80 Lux). Food (Altromin lab chow pellets) and tap water were available ad libitum. Under ketamine/xylasine (100/5 mg/kg, i.p.) anesthesia, the rats were fixed in a Kopf stereotaxic frame and implanted with cannulae (Plastic One, Inc., Roanoke, VA, USA) above the lateral ventricle. All research and animal care procedures were approved by the Lower Saxony district government (Hannover, Germany) and followed principles described in the European Community's Council Directive of 24 November 1986 (86/609/EEC).
Surgery and i.c.v. application. […]
Animals were randomly divided into eight experimental groups (n=6-8/group), which completed one SI test of anxiety: (1) aCSF+aCSF+aCSF; (2) BIBP+aCSF+aCSF; (3) aCSF+isoleucyl thiazolidine+aCSF; (4) BIBP+isoleucyl thiazolidine+aCSF; (5) aCSF+aCSF+NPY; (6) BIBP+aCSF+NPY; (7) aCSF+P32/89+NPY; (8) BIBP+isoleucyl thiazolidine+NPY. […] The time spent in active social interaction (SI-time), 1h, and 12h food-intake were measured. […]
Social interaction (SI) test. […] Behavior was monitored using a video camera placed above the field inside the testing/isolation box. The SI behavior of both rats was recorded on-line from a monitor placed outside on top of the box. The following parameters were scored by an observer (HPN) unaware of the substrain of rats: duration of time spent in sniffing, following, crawling under and over other rats, but not passive body contact (resting, sleeping). […]
Statistical analysis. Data obtained from the measures SI time and 1h food intake were analyzed by one-way (factor: "treatment") ANOVA. […]

Consider `CCC(C)C(N)C(=O)N1CCSC1` (stereo not shown) [isoleucyl thiazolidine], for which the “anxiolytic-like effect in the SI test (SI-time)” value is given as “acts not anxiolytic-like”.
